We go through 3 compounds from ChEMBL document CHEMBL4422670, “Ac4GlcNAcF3, an OGT-tolerated but OGA-resistant regulator for O-GlcNAcylation” (Bioorg Med Chem Lett, 2019).

Each structure is given as a SMILES string. The source made the active and inactive calls. No cut-off for these calls is given here.

The species entered for one data set is Mus musculus. Kind of data set: Modulation of OGT/OGA in mouse NIH/3T3 cells assessed as increase in O-GlcNAcylation at 5 to 100 uM by Western blot analysis. The data set is classed as cell-based. (In general: In western blotting, separated proteins are transferred to a membrane and probed.)
The target of data set [1] is T1, Protein O-GlcNAcase (Mus musculus) (UniProt Q9EQQ9).
T1 sequence (whole entry): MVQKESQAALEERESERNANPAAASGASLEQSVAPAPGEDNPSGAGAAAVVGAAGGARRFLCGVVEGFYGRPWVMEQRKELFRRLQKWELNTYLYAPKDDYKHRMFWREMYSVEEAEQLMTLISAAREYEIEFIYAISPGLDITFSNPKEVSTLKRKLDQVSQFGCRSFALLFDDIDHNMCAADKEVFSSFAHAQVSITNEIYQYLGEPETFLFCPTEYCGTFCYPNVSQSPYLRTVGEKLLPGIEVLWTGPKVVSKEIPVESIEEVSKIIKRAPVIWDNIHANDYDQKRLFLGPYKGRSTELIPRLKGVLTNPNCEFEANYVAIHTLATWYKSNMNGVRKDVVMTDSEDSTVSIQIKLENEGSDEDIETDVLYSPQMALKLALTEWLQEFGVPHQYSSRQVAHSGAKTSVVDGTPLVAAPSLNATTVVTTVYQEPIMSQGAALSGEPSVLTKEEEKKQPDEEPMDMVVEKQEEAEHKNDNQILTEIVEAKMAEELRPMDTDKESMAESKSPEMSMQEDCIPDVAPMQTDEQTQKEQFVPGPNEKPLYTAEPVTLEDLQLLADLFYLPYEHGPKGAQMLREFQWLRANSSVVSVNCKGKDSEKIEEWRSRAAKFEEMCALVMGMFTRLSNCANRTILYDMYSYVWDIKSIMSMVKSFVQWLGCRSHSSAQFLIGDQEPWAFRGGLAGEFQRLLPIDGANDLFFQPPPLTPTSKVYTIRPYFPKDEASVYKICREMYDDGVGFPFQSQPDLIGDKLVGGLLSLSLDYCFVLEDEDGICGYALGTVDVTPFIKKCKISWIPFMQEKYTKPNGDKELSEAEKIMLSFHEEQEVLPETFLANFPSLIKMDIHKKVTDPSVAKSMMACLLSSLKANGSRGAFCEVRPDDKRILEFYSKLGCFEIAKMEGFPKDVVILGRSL
Nature of the data set: Inhibition of OGA in mouse NIH/3T3 cells assessed as increase in O-GlcNAcylation at 20 uM after 24 hrs by Western blot analysis. The data set is classed as cell-based.

The nature of data set [2]: Cytotoxicity against mouse NIH/3T3 cells assessed as cell viability at 5 uM after 48 hrs by MTT assay relative to control. Conditions: read-out: Activity. The data set is classed as cell-based, NIH3T3. For orientation: Formazan colour is commonly taken as a measure of viable cells.
The nature of data set [3]: Cytotoxicity against mouse NIH/3T3 cells assessed as cell viability at 10 uM after 48 hrs by MTT assay relative to control. The data set is classed as cell-based, NIH3T3. Conditions: read-out: Activity.
Data set [4] in a line: Cytotoxicity against mouse NIH/3T3 cells assessed as cell viability at 20 uM after 48 hrs by MTT assay relative to control. The data set is classed as cell-based, NIH3T3. Conditions: read-out: Activity.
A short description of data set [5]: Cytotoxicity against mouse NIH/3T3 cells assessed as cell viability at 50 uM after 48 hrs by MTT assay relative to control. In kind it is cell-based, NIH3T3. As to conditions: read-out: Activity.
Data set [6] is described as follows: Cytotoxicity against mouse NIH/3T3 cells assessed as cell viability at 100 uM after 48 hrs by MTT assay relative to control. In kind it is cell-based, NIH3T3. As to conditions: read-out: Activity.
Data set [7] can be described thus: Cytotoxicity against human HepG2 cells assessed as cell viability at 5 uM after 48 hrs by MTT assay relative to control. Conditions: read-out: Activity. The data set is classed as cell-based.
Data set [8] in a line: Cytotoxicity against human HepG2 cells assessed as cell viability at 10 uM after 48 hrs by MTT assay relative to control. In kind it is cell-based. Conditions: read-out: Activity.
The nature of data set [9]: Cytotoxicity against human HepG2 cells assessed as cell viability at 20 uM after 48 hrs by MTT assay relative to control. The data set is classed as cell-based. As to conditions: read-out: Activity.
A short description of data set [10]: Cytotoxicity against human HepG2 cells assessed as cell viability at 50 uM after 48 hrs by MTT assay relative to control. In kind it is cell-based. Conditions: read-out: Activity.
Data set [11] can be described thus: Cytotoxicity against human HepG2 cells assessed as cell viability at 100 uM after 48 hrs by MTT assay relative to control. The data set is classed as cell-based. Conditions: read-out: Activity.
Data set [12] is described as follows: Cytotoxicity against human MCF7 cells assessed as cell viability at 5 uM after 48 hrs by MTT assay relative to control. The data set is classed as cell-based. As to conditions: read-out: Activity.
A short description of data set [13]: Cytotoxicity against human MCF7 cells assessed as cell viability at 10 uM after 48 hrs by MTT assay relative to control. The data set is classed as cell-based. As to conditions: read-out: Activity.
The nature of data set [14]: Cytotoxicity against human MCF7 cells assessed as cell viability at 20 uM after 48 hrs by MTT assay relative to control. The data set is classed as cell-based. As to conditions: read-out: Activity.
The nature of data set [15]: Cytotoxicity against human MCF7 cells assessed as cell viability at 50 uM after 48 hrs by MTT assay relative to control. In kind it is cell-based. Conditions: read-out: Activity.
Data set [16] in a line: Cytotoxicity against human MCF7 cells assessed as cell viability at 100 uM after 48 hrs by MTT assay relative to control. Conditions: read-out: Activity. The data set is classed as cell-based.
Data set [17] in a line: Cytotoxicity against human HeLa cells assessed as cell viability at 5 uM after 48 hrs by MTT assay relative to control. In kind it is cell-based. Conditions: read-out: Activity.
The nature of data set [18]: Cytotoxicity against human HeLa cells assessed as cell viability at 10 uM after 48 hrs by MTT assay relative to control. In kind it is cell-based. Conditions: read-out: Activity.
The nature of data set [19]: Cytotoxicity against human HeLa cells assessed as cell viability at 20 uM after 48 hrs by MTT assay relative to control. In kind it is cell-based. Conditions: read-out: Activity.
The nature of data set [20]: Cytotoxicity against human HeLa cells assessed as cell viability at 50 uM after 48 hrs by MTT assay relative to control. The data set is classed as cell-based. As to conditions: read-out: Activity.
The nature of data set [21]: Cytotoxicity against human HeLa cells assessed as cell viability at 100 uM after 48 hrs by MTT assay relative to control. The data set is classed as cell-based. Conditions: read-out: Activity.
Data set [22] in a line: Inhibition of lysosomal hexosaminidase (unknown origin). On the set-up: species or system Homo sapiens.

With `CC(=O)OC[C@H]1OC(OC(C)=O)[C@H](NC(=O)C(F)(F)F)[C@@H](OC(C)=O)[C@@H]1OC(C)=O` (stereo not given in full), the result in the data set filed under Mus musculus was Active. The inhibition result in data set [1] was “Active”. For the same compound, the viability at 48 h, 5 µM in data set [2] was 97.6%; in data set [7] it was 96.9%; in data set [12], 98.3%; in [17] it was 101%. The viability at 48 h, 10 µM in [3] was 94.1%; in [8] it was 94.7%; in [13], 97.4%; in data set [18], 96.2%. The viability at 48 h, 20 µM in data set [4] is 85.6%; in data set [9], 94.2%; in data set [14], 97.1%; in data set [19], 96%. For the same compound, the viability at 48 h, 50 µM came out at 61.3% in data set [5], 91.2% in data set [10], 96.4% in data set [15] and 84.1% in data set [20]. Also, the viability at 48 h, 100 µM in [6] was determined as 35.9%; in data set [11] it was 84.9%; in data set [16] it was 90.5%; in data set [21] it was 76.1%.
In the case of `CCNC1=N[C@@H]2[C@@H](O)[C@H](O)[C@@H](CO)O[C@@H]2S1`, the inhibition entry in data set [1] is “Active”.
With `CC(=O)N[C@H]1/C(=N/OC(=O)Nc2ccccc2)O[C@H](CO)[C@@H](O)[C@@H]1O` [PUGNAC], the inhibition result in [1] was “Active”. Further, the Ki in data set [22] was 30 to 40 nM.

Broadly, the Ki is a dissociation constant, usually derived from enzyme kinetics or from competition with a known ligand. Lower therefore signals higher affinity.
